Experimental data published in paper PMC6812366 (ACS Omega, 2019).

Legend:
[1] = molecular target: T1, hDcpS (human decapping scavenger enzyme) (Homo sapiens, UniProt Q96C86); experiment: HPLC decapping assay with recombinant enzyme, hydrolysis rate V0 at […] substrate; format: biochemical
[2] = molecular target: T2, CeDcpS (C. elegans decapping scavenger enzyme) (Caenorhabditis elegans, UniProt G5EFS4); experiment: as above; format: biochemical
T2 sequence (G5EFS4 1-311): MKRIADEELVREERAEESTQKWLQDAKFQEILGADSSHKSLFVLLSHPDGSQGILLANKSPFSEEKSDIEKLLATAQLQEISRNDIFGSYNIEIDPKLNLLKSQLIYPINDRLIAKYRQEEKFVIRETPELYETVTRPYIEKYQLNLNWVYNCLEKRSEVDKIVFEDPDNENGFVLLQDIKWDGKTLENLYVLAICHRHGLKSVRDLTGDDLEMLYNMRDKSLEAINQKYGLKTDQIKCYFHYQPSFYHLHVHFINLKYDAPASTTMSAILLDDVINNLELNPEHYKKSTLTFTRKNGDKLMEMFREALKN

[3] = molecular target: T1, hDcpS (human decapping scavenger enzyme); experiment: intrinsic Trp fluorescence quenching titration, association constant Kas; format: binding
[4] = molecular target: T2, CeDcpS (C. elegans decapping scavenger enzyme); experiment: as above; format: binding

T1 sequence (Q96C86 2-337): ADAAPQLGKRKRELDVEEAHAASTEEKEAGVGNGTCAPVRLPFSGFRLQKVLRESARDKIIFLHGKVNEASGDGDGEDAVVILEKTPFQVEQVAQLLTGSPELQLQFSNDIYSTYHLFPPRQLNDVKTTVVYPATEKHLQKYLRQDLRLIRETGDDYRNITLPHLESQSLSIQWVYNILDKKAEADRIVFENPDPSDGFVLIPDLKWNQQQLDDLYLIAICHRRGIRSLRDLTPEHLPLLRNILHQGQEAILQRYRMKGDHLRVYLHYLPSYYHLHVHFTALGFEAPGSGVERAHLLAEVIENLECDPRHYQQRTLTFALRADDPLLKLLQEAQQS

Row | hDcpS [1] [µM/min] | CeDcpS [2] [µM/min] | Kd [3] [nM] | Kd [4] [nM] | SMILES
1 | 4.33 ± 0.23 | 1.83 ± 0.21 | – | – | C[n+]1cn([C@@H]2O[C@H](COP(=O)(O)OP(=O)(O)OP(=O)(O)OC[C@H]3O[C@@H](n4cnc5c(=O)[nH]c(N)nc54)[C@H](O)[C@@H]3O)[C@@H](O)[C@H]2O)c2nc(N)[nH]c(=O)c21 [m7GpppG, P1-(7-methylguanosin-5′-yl)-P3-guanosin-5′-yl triphosphate]
2 | – | – | 286 | 136 | CNc1nc2c(c(=O)[nH]1)[n+](C)cn2[C@@H]1O[C@H](COP(=O)(O)O)[C@@H](O)[C@H]1O [m2m7GMP]
